Results published in patent US7981904B2, “Acetyl CoA carboxylase inhibitors” (Takeda Pharmaceutical Company Limited, priority 2008, dated 2011).

How the values were obtained:
Human ACC1 = target: T1, Human ACC1 (Homo sapiens, UniProt Q13085); assay: in vitro enzymatic ACC activity assay (malachite green, absorbance at 620 nm), ACC1; assay type: biochemical; conditions: recombinant His-tagged human ACC1, 8 μg/mL; 60 min preincubation, 20 min reaction at 30° C.
T1 construct: made in house; host or cells: SF-9 insect cells (baculovirus, pFAST-BacHTc)
Protocol: (§1) Provided in Example A is an in vitro enzymatic ACC activity assay for activity against ACC. The binding affinity of the test compound to ACC1 or ACC2 is determined by the changes in absorbance (at 620 nm); […]. It should be noted that a variety of other expression systems and hosts are also suitable for the expression of ACC, as would be readily appreciated by one of skill in the art.
A. Purification of Human ACC1
Human ACC1 cDNA was amplified from human liver cDNA by polymerase chain reaction using primers; 5′[…]3′ (SEQ ID NO. 1) and 5′[…]3′ (SEQ ID NO: 2). The amplified DNA fragment was digested by restriction enzyme SalI and NotI, and cloned into pFAST-BacHTc (Invitrogen). This plasmid DNA was used for preparation of recombinant vaculovirus with BAC-TO-BAC Baculovirus Expression System (Invitrogen).
SF-9 cells were infected with the vaculovirus and cultured at 27° C. for 3 days. Harvested cells were homogenized in buffer A (25 mM HEPES (pH7.5), 130 mM NaCl, 1 mM EDTA, 25 mM sodium glycerophosphate, 1 mM sodium orthovanadate, 10% glycerol, complete protease inhibitor), and subjected to ultracentrifuge at 185700×g for 50 min at 4° C. ACC1 protein with 6×His-tag at the N-terminal was purified from the supernatant using Ni-NTA Super Flow Gel (QIAGEN). Eluted protein was dialysed against buffer B (50 mM HEPES (pH 7.5), 300 mM NaCl, 10 mM MgCl2, 10 mM tripotassium citrate, 2 mM dithiothreitol) and concentrated using Vivaspin20 ultrafiltration tube (Sartorius).
(§2) C. Measurement of ACC Activity
(§3) Malachite green solution was prepared by mixing 100 mL of solution A (0.12% malachite green in 5N H2SO4), 25 mL of solution B (7.5% ammonium molybdate) and 2 mL of solution C (11% TWEEN-20).
(§4) ACC1 was diluted to 8 μg/mL in reaction buffer (50 mM HEPES pH7.5, 10 mM MgCl2, 10 mM tripotassium citrate, 2 mM DTT, 0.75 mg/mL fatty acid free BSA) and 10 μL diluted enzyme solution was pored into each well of 384-well clear bottom plate. Test compound was diluted in the reaction buffer and 5 μL of the compound solution was added into each well, and the mixture was incubated at 30° C. for 60 minutes. Reaction was initiated by addition of 5 μL substrate solution (50 mM KHCO3, 200 μM ATP, 200 μM acetyl-CoA). After incubation at 30° C. for 20 minutes, reaction was terminated by addition of 5 μL malachite green solution and absorbance at 620 nm was measured.
(§5) Percent activity at each concentration of compound was calculated from the following equation:
(§6) [formula] where Abs is absorbance, Avg is average.
(§7) Data were subjected to nonlinear regression analysis using GraphPad Prism Software (GraphPad Software Inc.) to obtain IC50 values.

Human ACC2 = target: T2, Human ACC2 (Homo sapiens, UniProt O00763); assay: in vitro enzymatic ACC activity assay (malachite green, absorbance at 620 nm), ACC2; assay type: biochemical; conditions: recombinant His-tagged human ACC2, 6.4 μg/mL; same method as ACC1
T2 construct: made in house; host or cells: SF-9 insect cells (baculovirus, pFAST-BacHTa)
T2 sequence (O00763 117-2458 limits assumed): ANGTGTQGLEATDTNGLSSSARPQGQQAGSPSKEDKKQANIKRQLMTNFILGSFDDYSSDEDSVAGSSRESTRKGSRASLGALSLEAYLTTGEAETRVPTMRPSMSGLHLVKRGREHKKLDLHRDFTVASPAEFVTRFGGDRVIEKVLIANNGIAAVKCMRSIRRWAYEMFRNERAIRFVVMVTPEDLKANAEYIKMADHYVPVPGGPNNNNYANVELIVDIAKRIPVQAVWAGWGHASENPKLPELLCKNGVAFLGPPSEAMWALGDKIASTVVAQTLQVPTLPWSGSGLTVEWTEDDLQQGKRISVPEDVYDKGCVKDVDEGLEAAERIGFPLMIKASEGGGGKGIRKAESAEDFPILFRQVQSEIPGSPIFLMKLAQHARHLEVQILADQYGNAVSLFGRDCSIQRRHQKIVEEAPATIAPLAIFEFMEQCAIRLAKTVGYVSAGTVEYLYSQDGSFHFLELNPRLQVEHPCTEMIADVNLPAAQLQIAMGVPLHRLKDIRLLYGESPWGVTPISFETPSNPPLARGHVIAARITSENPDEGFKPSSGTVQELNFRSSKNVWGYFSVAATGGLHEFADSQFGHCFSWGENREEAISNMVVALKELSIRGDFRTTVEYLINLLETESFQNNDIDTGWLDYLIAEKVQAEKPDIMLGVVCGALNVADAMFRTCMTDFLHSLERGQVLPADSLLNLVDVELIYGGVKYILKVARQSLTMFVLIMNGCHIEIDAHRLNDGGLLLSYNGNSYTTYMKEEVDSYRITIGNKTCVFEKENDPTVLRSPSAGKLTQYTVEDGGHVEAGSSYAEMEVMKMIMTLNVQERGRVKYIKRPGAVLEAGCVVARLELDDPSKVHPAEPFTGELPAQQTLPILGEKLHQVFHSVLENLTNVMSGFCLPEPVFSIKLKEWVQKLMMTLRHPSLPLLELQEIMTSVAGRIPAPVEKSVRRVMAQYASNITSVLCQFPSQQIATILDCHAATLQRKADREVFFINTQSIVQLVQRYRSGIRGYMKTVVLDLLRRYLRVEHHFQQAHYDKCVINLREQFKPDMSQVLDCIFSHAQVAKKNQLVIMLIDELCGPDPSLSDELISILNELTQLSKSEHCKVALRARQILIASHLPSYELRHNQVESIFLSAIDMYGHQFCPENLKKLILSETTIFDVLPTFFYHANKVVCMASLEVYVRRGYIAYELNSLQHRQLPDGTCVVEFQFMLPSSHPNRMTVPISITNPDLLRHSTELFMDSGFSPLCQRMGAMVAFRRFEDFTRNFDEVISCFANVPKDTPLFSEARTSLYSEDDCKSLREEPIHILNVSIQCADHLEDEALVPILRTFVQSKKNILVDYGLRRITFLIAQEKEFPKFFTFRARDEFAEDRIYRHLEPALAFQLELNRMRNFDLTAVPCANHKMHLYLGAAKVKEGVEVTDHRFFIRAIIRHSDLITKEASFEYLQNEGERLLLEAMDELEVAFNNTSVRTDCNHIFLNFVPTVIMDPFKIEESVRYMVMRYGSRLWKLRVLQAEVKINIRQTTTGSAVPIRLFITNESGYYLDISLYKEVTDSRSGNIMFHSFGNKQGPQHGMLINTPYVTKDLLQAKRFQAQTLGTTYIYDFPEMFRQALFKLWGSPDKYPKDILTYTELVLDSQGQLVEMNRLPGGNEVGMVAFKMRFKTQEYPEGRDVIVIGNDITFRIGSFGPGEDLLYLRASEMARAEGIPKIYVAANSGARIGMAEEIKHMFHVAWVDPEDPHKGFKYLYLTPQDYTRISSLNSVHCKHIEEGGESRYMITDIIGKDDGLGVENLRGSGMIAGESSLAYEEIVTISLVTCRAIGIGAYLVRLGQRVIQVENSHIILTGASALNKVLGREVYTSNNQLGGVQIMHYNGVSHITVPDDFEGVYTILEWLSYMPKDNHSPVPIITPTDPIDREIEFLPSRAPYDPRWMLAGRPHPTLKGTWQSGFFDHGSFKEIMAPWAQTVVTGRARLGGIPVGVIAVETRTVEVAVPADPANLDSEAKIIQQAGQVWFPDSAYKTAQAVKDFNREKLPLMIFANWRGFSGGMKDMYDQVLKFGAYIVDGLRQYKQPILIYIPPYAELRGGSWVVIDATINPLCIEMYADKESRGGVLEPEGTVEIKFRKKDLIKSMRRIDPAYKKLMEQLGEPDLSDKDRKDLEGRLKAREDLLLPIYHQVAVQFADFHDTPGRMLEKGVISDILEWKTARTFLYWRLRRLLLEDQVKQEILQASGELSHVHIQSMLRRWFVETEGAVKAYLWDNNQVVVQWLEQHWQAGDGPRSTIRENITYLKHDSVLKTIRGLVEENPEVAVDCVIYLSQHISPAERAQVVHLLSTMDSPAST
Protocol: as §1
B. Purification of Human ACC2
Human ACC2 cDNA except coding region for mitochondria localization sequence was amplified from human skeletal muscle cDNA by polymerase chain reaction using primers; 5′[…]3′ (SEQ ID NO: 3) and 5′[…]3′ (SEQ ID NO: 4). The amplified DNA fragment was digested by SalI and AflIII, and cloned into pFAST-BacHTa (Invitrogen). Preparation of recombinant vaculovirus, infection of the virus to SF-9 cells and purification of recombinant ACC2 protein with 6×His-tag at the N-terminal were performed in the same method as described above.
as §2, §3, §4
ACC2 was diluted to 6.4 μg/mL in reaction buffer, and the activity was measured by the same method as described for ACC1.
as §5, §6, §7

SMILES | IC50 (Human ACC1) [µM] | IC50 (Human ACC2) [µM]
CCCCN1C=NC2(CCN(C(=O)c3c(NC(=O)NCC)sc4ccccc34)CC2)C1=O [Compound 20, 1-(3-(3-butyl-4-oxo-1,3,8-triazaspiro[4.5]dec-1-enecarbonyl)benzo[b]thiophen-2-yl)-3-ethylurea] | > 10 | 1 to 10
CCNC(=O)Nc1sc2ccccc2c1C(=O)N1CCC(N)(C(N)=O)CC1 [Compound 7, 4-amino-1-(2-(3-ethylureido)benzo[b]thiophene-3-carbonyl)piperidine-4-carboxamide] | > 10 | > 10
CCNC(=O)Nc1sc2ccccc2c1C(=O)N1CCC2(CC1)N=CNC2=O [Compound 14, 1-ethyl-3-(3-(4-oxo-1,3,8-triazaspiro[4.5]dec-1-enecarbonyl)benzo[b]thiophen-2-yl)urea] | > 10 | > 10
CCNC(=O)Nc1sc2ccccc2c1C(=O)N1CCC2(CC1)N=C(CCC(=O)N1CCCCC1)NC2=O [Compound 13, 1-ethyl-3-(3-(4-oxo-2-(3-oxo-3-(piperidin-1-yl)propyl)-1,3,8-triazaspiro[4.5]dec-1-enecarbonyl)benzo[b]thiophen-2-yl)urea] | 1 to 10 | < 1
CCNC(=O)Nc1sc2ccccc2c1C(=O)N1CCC2(CC1)N=C(CSC)NC2=O [Compound 3, 1-ethyl-3-(3-(2-(methylthiomethyl)-4-oxo-1,3,8-triazaspiro[4.5]dec-1-enecarbonyl)benzo[b]thiophen-2-yl)urea] | 1 to 10 | 1 to 10
CCNC(=O)Nc1sc2c(OC)cccc2c1C(=O)N1CCC2(CC1)NC(c1ccccc1)=NC2=O [Compound 18, 1-ethyl-3-(7-methoxy-3-(4-oxo-2-phenyl-1,3,8-triazaspiro[4.5]dec-2-enecarbonyl)benzo[b]thiophen-2-yl)urea] | 1 to 10 | < 1
CCNC(=O)Nc1sc2c(OC)cccc2c1C(=O)N1CCC2(CC1)N=C(CCC(=O)OCC)NC2=O [Compound 11, ethyl 3-(8-(2-(3-ethylureido)-7-methoxybenzo[b]thiophene-3-carbonyl)-4-oxo-1,3,8-triazaspiro[4.5]dec-1-en-2-yl)propanoate] | < 1 | < 1
CCNC(=O)Nc1sc2ccccc2c1C(=O)N1CCC2(CC1)N=C(CSC(C)C)NC2=O [Compound 22, 1-ethyl-3-(3-(2-(isopropylthiomethyl)-4-oxo-1,3,8-triazaspiro[4.5]dec-1-enecarbonyl)benzo[b]thiophen-2-yl)urea] | 1 to 10 | < 1

More lines, now with the values ahead:

IC50 (Human ACC1) [µM] | IC50 (Human ACC2) [µM] | SMILES
1 to 10 | < 1 | CCNC(=O)Nc1sc2ccccc2c1C(=O)N1CCC2(CC1)N=C(Cn1cc(C3CC3)nn1)NC2=O [Compound 38, 1-(3-(2-((4-cyclopropyl-1 H-1,2,3-triazol-1-yl)methyl)-4-oxo-1,3,8-triazaspiro[4.5]dec-1-enecarbonyl)benzo[b]thiophen-2-yl)-3-ethylurea]
> 10 | 1 to 10 | CCNC(=O)Nc1sc2ccccc2c1C(=O)N1CCC2(CC1)N=C(Cn1cc(CO)nn1)NC2=O [Compound 37, 1-ethyl-3-(3-(2-((4-(hydroxymethyl)-1 H-1,2,3-triazol-1-yl)methyl)-4-oxo-1,3,8-triazaspiro[4.5]dec-1-enecarbonyl)benzo[b]thiophen-2-yl)urea]
> 10 | 1 to 10 | CCNC(=O)Nc1sc2ccccc2c1C(=O)N1CCC2(CC1)N=C(Cn1cc(CN(C)C)nn1)NC2=O [Compound 35, 1-(3-(2-((4-((dimethylamino)methyl)-1 H-1,2,3-triazol-1-yl)methyl)-4-oxo-1,3,8-triazaspiro[4.5]dec-1-enecarbonyl)benzo[b]thiophen-2-yl)-3-ethylurea]
1 to 10 | 1 to 10 | CCNC(=O)Nc1sc2ccccc2c1C(=O)N1CCC2(CC1)N=C(COC(C)C)NC2=O [Compound 29, 1-ethyl-3-(3-(2-(isopropoxymethyl)-4-oxo-1,3,8-triazaspiro[4.5]dec-1-enecarbonyl)benzo[b]thiophen-2-yl)urea]
1 to 10 | < 1 | CCNC(=O)Nc1sc2ccccc2c1C(=O)N1CCC2(CC1)N=C(COc1ccccc1OC)NC2=O [Compound 25, 1-ethyl-3-(3-(2-((2-methoxyphenoxy)methyl)-4-oxo-1,3,8-triazaspiro[4.5]dec-1-enecarbonyl)benzo[b]thiophen-2-yl)urea]
